Laboratory results published in US7534455B2, “Herbal composition PHY906 and its use in chemotherapy” (Yale University, priority 2000, dated 2009).
Read-outs that look alike come from different tables or passages of the source. Each block holds one compound with its values, some of them ahead of it.

What was measured:
[1] = test system: hepatocellular carcinoma; settings: cited from earlier work
[2] = test system: colorectal cancer; settings: cited from earlier work; for Median survival time / Median time to disease progression: NS
[3] = Pharmacokinetics of CPT-11/FU/LV in BDF-1 mice bearing Colon 38 tumor; format: in vivo; settings: triple combination CPT-11/FU/LV
Source text: The pharmacokinetic data of CPT-11/FU/LV in BDF-1 mice bearing Colon 38 tumor in the presence and absence of PHY906 are shown in FIGS. 18-20. PHY906-6 is a clinical batch of PHY906, containing 10% excipient (starch).

[4] = Host toxicity (body weight loss, mortality, blood cell counts) in chemotherapy treated BDF-1 mice bearing Colon 38 tumor; format: in vivo
Experimental: Anti-Tumor Studies: Murine Colon 38 (1-2×10^6 cells in 0.1 ml PBS) or human HepG2 cells (1-2×10^6 cells in 0.1 ml PBS) were transplanted subcutaneously into BDF1 or NCr athymic nude mice, respectively. The length and width of the tumors were measured daily with sliding calipers. The tumor weight was estimated according to the following formula (Pizzorno G, Wiegand R, Lentz S, et al., Cancer Res. 52:1660-1665 (1992)): Tumor weight (mg)=length (mm)×width (mm)^2/2.
After 10 to 14 days, mice (five animals/group) with tumor weights ranging from 150-200 mg were selected for drug studies (Guo X, Lerner-Tung M, Chen H X, et al., Biochem Pharmacol 49:1111-1116 (1995)). Mice were sacrificed when the tumor size reached 10% of body weight. PHY906 was administered orally either alone or with anti-cancer chemotherapeutic agents. The effect of PHY906 on antitumor efficacy and the reduction of toxicity by the agents were evaluated. CPT-11 was given intraperitoneally (i.p.) 30 min after PHY906 administration with the selected dose. The regimen of FU/LV combination therapy was given as follows:
The first day of treatment was defined as day 0. PHY906 was given orally twice a day (10 am and 3 pm) for either 4 or 8 days beginning on day 0. For the control group, mice were administrated a vehicle, either PBS for i.p. or H2O for p.o. (oral administration). Animals were monitored for mortality, weight loss, and tumor size daily.
Blood Cell Counts: Blood (20 μl) was taken from mice on days 0, 3, 6, 9 and 12 with micro-capillary tubes. Blood was then be diluted to 200 μl with normal saline (0.85% Sodium Chloride). WBC, RBC and platelets were counted by a BAKER SYSTEM 9100™ […] (Biochem ImmunoSystems Inc., Allentown, Pa. 18103-9562).
PHY906 was evaluated as a modulator of CPT-11 therapy for toxic side effects in mice inoculated with Colon 38 tumor cells. Based on the previous findings (Example 2), a single bolus dose of 400 mg/kg CPT-11 was selected to study the effect of PHY906 on weight-loss associated with toxicity of CPT-11. To evaluate whether PHY906 impairs the antitumor efficacy of CPT-11, mice were implanted subcutaneously with Colon 38 tumor cells. Ten to 14 days after inoculation, mice were treated with CPT-11 (400 mg/kg, i.p.) in the absence or presence of PHY906, which was given orally twice a day at varying doses (125 mg/kg, 250 mg/kg, and 500 mg/kg). PHY906 treatment was continued at the dose indicated for 8 consecutive days.
Mice were divided into four groups with different treatment regimens: Group (A) treatment with vehicle; Group (B) treatment with a single dose of 400 mg/kg CPT-11 by i.p. injection; Group (C) treatment with PHY906 (500 mg/kg/b.i.d.) alone; or Group (D) treatment with a single dose of 400 mg/kg CPT-11 plus 500 mg/kg/b.i.d. PHY906 for 4 or 8 days. The sequence of each treatment regimen appears in Materials and Methods. As depicted in Table 9, 35 of 35 tumor-bearing mice (100%) from Group A and 15 of 15 mice (100%) from Group C survived treatment with either vehicle or PHY906 alone for 4 or 8 days, indicating no or very low toxicity for PHY906.

[5] = Toxicity (tolerable dose, body weight loss, death) in nude mice bearing human HepG2 xenografts; format: in vivo, NCr-nude mice
Experimental: Weight loss was observed immediately after CPT-11 treatment and continued for six days in mice injected with 400 mg/kg of CPT-11. These animals gradually recovered their original body weight on day 12. […] The maximum tolerable dose of CPT-11 in nude mice bearing the human HepG2 xenografts was 200 mg/kg (data not shown).
Human HepG2 tumor cells were implanted into NCr-nude mice to test the effect of PHY906 on the antitumor activity of CPT-11. […] CPT-11 (200 mg/kg, i.p.) was given on day 0. PHY906 was given twice daily at 500 mg/kg starting on day 0.
Based upon the known pharmacological profiles of herbs contained in PHY906, it was speculated that the enhancing effects might act through immunological and/or hematological systems in normal mice. Therefore, experiments were designed to test the hypothesis in nude mice, which are deficient in immunological and hematological systems. Human hepatocellular carcinoma HepG2 cells were implanted into NCr-nude mice to test the effect of PHY906 on the antitumor activity of CPT-11. […] CPT-11 (200 mg/kg, i.p.) was given on day 0. PHY906 was given twice daily at 500 mg/kg starting on day 0 and continued for 8 days. As shown in 31, PHY906 enhanced the antitumor effect of CPT-11 on human HepG2 xenografts in nude mice.

[6] = Determination of CPT-11 dose in non-tumor bearing BDF-1 mice (weight loss, death); format: in vivo; settings: single i.p. bolus
Experimental: Animal weight loss was monitored as an indication of toxicity caused by anticancer chemotherapy agents. The effect of CPT-11 on weight loss in non-tumor bearing BDF-1 mice was studied using six different dosages: 100, 200, 300, 400, 600, or 800 mg/kg body weight to determine the maximum tolerable dose in mice. A single bolus dose of CPT-11 was administered intraperitoneally (i.p.) at the beginning of the study, and weight loss was monitored daily for 12 days.
One dose of CPT-11 was administered i.p. to each mouse at the beginning of the study, and the weight loss of the animal was then monitored daily for 12 days.

[7] = Pharmacokinetics of gemcitabine (dFdC) and dFdU in plasma of PAN02 bearing BDF-1 mice; format: in vivo; settings: for AUC, dFdC + PHY906: PHY906 500 mg/kg 30 min before gemcitabine; for AUC, dFdC alone: gemcitabine 600 mg/kg
Experimental: (§1) Plasma Handling: The mouse plasma was separated from the blood by centrifugation at 10,000 g at 4° C. for 10 min.
b) Gemcitabine-containing plasma: The plasma (50 μl) was extracted with 200 μl of acetonitrile (ACN) in the presence of 5 μl of 0.1 mM AZT as an internal standard. After centrifugation, the supernatant was dried by a Speedvac, reconstituted with 100 μl of solution containing 2.5% ACN and 97.5% of 15 mM ammonium acetate (pH 5.0).
(§2) The resultant analyte was then analyzed by HPLC with UV absorption and/or radioactivity.
To determine, for a future clinical trial, if PHY906 would change the metabolism of gemcitabine, a pharmacokinetics analysis in mice bearing pancreatic cancer was performed. Mice were divided into three sets of 15: gemcitabine only, gemcitabine plus PHY906, and vehicle control. Each mouse in the set was bled twice at two different time points. Plasma was processed as described in Materials and Methods and analyzed by HPLC with radioactivity confirmation of peak identity and quantitation.

[8] = Pharmacokinetics of capecitabine in animal models; format: in vivo, mouse
Experimental: as §1
a) Capecitabine-containing sample: The plasma (50 μl) was extracted with 200 μl of acetonitrile in the presence of 10 μl of 5-iodouracil (IU)(50 μg/ml) as an internal standard. After centrifugation, the supernatant from capecitabine-containing sample was dried by a speedvac, reconstituted with 50 μl of 0.1 M sodium acetate buffer (pH 4.8), and extracted with 1.3 ml of water-saturated ethyl acetate. The organic layer was separated after centrifugation (10,000 g at 4° C. for 10 min), dried by a speedvac and reconstituted with 100 μl of water.
as §2

[9] = CPT-11 400 mg/kg, 1 day, alone, observed 14 days

Structure (SMILES): COc1cccc2c1C(=O)c1c(O)c3c(c(O)c1C2=O)C[C@@](O)(C(=O)CO)C[C@@H]3O[C@H]1C[C@H](N)[C@H](O)[C@H](C)O1 [doxorubicin, Doxorubicin]
- Response rate ([1]; eight trials, 475 evaluable patients (range 0-35%)): 16%

Structure (SMILES): CCc1c2c(nc3ccc(OC(=O)N4CCC(N5CCCCC5)CC4)cc13)-c1cc3c(c(=O)n1C2)COC(=O)[C@]3(O)CC [CPT-11, Irinotecan]
- Response rate, second-line therapy ([2]; advanced colorectal cancer): 10%-15%
- Level in tumor or liver tissues after PHY906 co-administration [3]: no significant change
- AUC in plasma after co-administration of PHY906 ([3]; PHY906-6): increases
- Survival [4, 9]: 82.5%
- Total No. of Mice Survived N [4, 9]: 33
- Animal Death (Death/Total) ([4]; CPT-11 treated mice, observed for 14 days): 7/40
- Maximum tolerable dose [5]: 200 mg/kg
- Dosages with little effect on body weight [6]: lower than 200 mg/kg
- Doses resulting in animal death on the second day [6]: greater than or equal to 600 mg/kg
- Doses mice were able to tolerate ([6]; 12 days): up to 400 mg/kg

- Cmax, dFdC + PHY906 ([7]; Radioactivity detection): 48000 ng/mL
- Cmax, dFdC alone ([7]; Radioactivity detection): 31000 ng/mL
- Tmax, dFdC + PHY906 ([7]; Radioactivity detection): 2 h
- Tmax, dFdC alone ([7]; Radioactivity detection): 1 h
- T½, dFdC + PHY906 ([7]; Radioactivity detection): 0.82 h
- T½, dFdC alone ([7]; Radioactivity detection): 1.55 h
- AUC, dFdC + PHY906 ([7]; Radioactivity detection): 8.5 mg·min/mL
- AUC, dFdC alone ([7]; Radioactivity detection): 5.8 mg·min/mL
- Cmax, dFdC + PHY906 ([7]; UV detection): 22000 ng/mL
- Cmax, dFdC alone ([7]; UV detection): 14000 ng/mL
- Tmax, dFdC + PHY906 ([7]; UV detection): 2 h
- Tmax, dFdC alone ([7]; UV detection): 1 h
- T½, dFdC + PHY906 ([7]; UV detection): 1.16 h
- T½, dFdC alone ([7]; UV detection): 1.64 h
- AUC, dFdC + PHY906 ([7]; UV detection): 4.4 mg·min/mL
- AUC, dFdC alone ([7]; UV detection): 3.1 mg·min/mL
- Levels in circulation in the presence or absence of PHY906 ([7]; plasma): not a dramatic difference
Structure (SMILES): O=c1ccn(C2OC(CO)C(O)C2(F)F)c(=O)[nH]1 (stereo not shown) [dFdU]

Structure (SMILES): CCc1c2c(nc3ccc(O)cc13)-c1cc3c(c(=O)n1C2)COC(=O)[C@]3(O)CC [SN-38]
- Level in plasma, liver, or tumor after PHY906 co-administration [3]: remains unchanged

Structure (SMILES): CCCCCOC(=O)Nc1nc(=O)n([C@@H]2O[C@H](C)[C@@H](O)[C@H]2O)cc1F [capecitabine, 5′-deoxy-5-fluoro-N-[(pentyloxy)carbonyl]-cytidine]
- Median survival time ([2]; Hoff et al. 2001): 380 days
- Median time to disease progression ([2]; Hoff et al. 2001): 128 days
- Response rate ([2]; Hoff et al. 2001, P=0.0014): 21%
- Median survival time ([2]; Van Cutsem et al. 2001): 404 days
- Median time to disease progression ([2]; Van Cutsem et al. 2001): 137 days
- Response rate ([2]; Van Cutsem et al. 2001, P=0.027): 21%
- Pharmacokinetic profile on co-administration of PHY906 [8]: did not alter the pharmacokinetic profile
- Response rate ([1]; 55 patients with nonresectable hepatobiliary carcinoma): 13%
- Response rate ([1]; hepatocellular carcinoma / liver cancer, systemic chemotherapy): 13%

- AUCs of FU and its nucleoside/nucleotide metabolites (FU+FUR+FUMP) in plasma or liver after PHY906 co-administration [3]: change
Structure (SMILES): O=c1[nH]cc(F)c(=O)[nH]1 [FU, 5-fluorouracil]
- Response rate in patients with advanced disease ([2]; human, in vivo): 10%-12%
